Experimental data reported in patent US20260297131A1, “COMPOSITIONS AND METHODS FOR PEPTIDE-BASED MODULATORS OF HUMAN PAPILLOMAVIRUS ONCOPROTEIN E6” (priority 2023, published 2026).
Values joined by “and” are separate entries in the source; they are usually repeats but may differ in a detail not shown here. Equal entries are not always repeated. Square brackets hold non-standard residues; d marks the D form. Peptide text beside a SMILES is read from it. * marks the point of attachment. Acetyl(9-fluorenyl) = O=C(CC1c2ccccc2-c2ccccc21)*; Anthracene1carbonyl = O=C(c1cccc2cc3ccccc3cc12)*; 2Nal = N[C@@H](Cc1ccc2ccccc2c1)C(=O)O; Gly(cPent) = N[C@H](C(=O)O)C1CCCC1; 1Naphthoyl = O=C(c1cccc2ccccc12)*; Ala(cPr) = N[C@@H](CC1CC1)C(=O)O; Hyp = O=C(O)[C@@H]1C[C@@H](O)CN1; hPhe = N[C@@H](CCc1ccccc1)C(=O)O; Gly(cBu) = N[C@H](C(=O)O)C1CCC1; Aad = N[C@@H](CCCC(=O)O)C(=O)O; Cba = N[C@@H](CC1CCC1)C(=O)O; Nva = CCC[C@H](N)C(=O)O; Aib = CC(C)(N)C(=O)O; Dha = C=C(N)C(=O)O

Key:
MBP-16E6 [1] = biological target: T1, MBP-16E6 (Human papillomavirus 16, UniProt P03126, C104S/C118S/C147S/C87S); settings: for Ratio to wild-type: N-terminal modified peptides, KD of WT divided by KD
MBP-16E6 [2] = biological target: T1, MBP-16E6; assay: biochemical
[3] = KD in nM, N-terminal modified peptides, competition mode, N = 2 or 3, SEM of curve fitting
[4] = KD, nM, TABLE 2B, BLI competition

T1 sequence (P03126 whole entry C104S/C118S/C147S/C87S, looked up): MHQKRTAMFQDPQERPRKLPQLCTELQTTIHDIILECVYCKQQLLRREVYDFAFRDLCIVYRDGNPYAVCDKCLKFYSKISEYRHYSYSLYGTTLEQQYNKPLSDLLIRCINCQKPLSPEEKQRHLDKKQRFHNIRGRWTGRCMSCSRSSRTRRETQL

## C=C(NC(=O)[C@H](CC1CC1)NC(=O)[C@H](CCc1ccccc1)NC(=O)[C@H](CCC(=O)O)NC(=O)C(C)(C)NC(=O)[C@H](CC1CC1)NC(=O)[C@@H](NC(=O)[C@H](Cc1ccc2ccccc2c1)NC(=O)[C@@H](N)CCCC(=O)O)C1CCC1)C(=O)N[C@@H](CCC(=O)O)C(=O)N[C@@H](CCC(=O)O)C(=O)N[C@@H](CCCNC(=N)N)C(N)=O [peptide 14] (H-[Aad][2Nal][Gly(cBu)][Ala(cPr)][Aib]E[hPhe][Ala(cPr)][Dha]EER-NH2)
MBP-16E6 [1]; substitution Leu8Hof
  lower binding affinity compared to peptide 18: 2 fold

## CC[C@H](C)[C@H](NC(=O)Cc1cc(=O)oc2cc(OC)ccc12)C(=O)N1CCC[C@H]1C(=O)N[C@@H](CCC(=O)O)C(=O)N[C@@H](CO)C(=O)N[C@@H](CO)C(=O)N[C@@H](CCC(=O)O)C(=O)N[C@@H](CC(C)C)C(=O)N[C@H](C(=O)N[C@@H](CC(C)C)C(=O)N[C@@H](CCC(N)=O)C(=O)N[C@@H](CCC(=O)O)C(=O)N[C@@H](CC(C)C)C(=O)N[C@@H](CC(C)C)C(=O)NCC(=O)N[C@@H](CCC(=O)O)C(=O)N[C@@H](CCC(=O)O)C(=O)N[C@@H](CCCNC(=N)N)C(=O)N[C@@H](CCCNC(=N)N)C(N)=O)[C@@H](C)O [Peptide N20]
MBP-16E6 [2]; [3]
  Kd: 213 ± 47 nM
MBP-16E6 [1]
  Ratio to wild-type: 11.4

## CC[C@H](C)[C@H](NC(=O)c1ccc2cc(O)ccc2c1)C(=O)N1CCC[C@H]1C(=O)N[C@@H](CCC(=O)O)C(=O)N[C@@H](CO)C(=O)N[C@@H](CO)C(=O)N[C@@H](CCC(=O)O)C(=O)N[C@@H](CC(C)C)C(=O)N[C@H](C(=O)N[C@@H](CC(C)C)C(=O)N[C@@H](CCC(N)=O)C(=O)N[C@@H](CCC(=O)O)C(=O)N[C@@H](CC(C)C)C(=O)N[C@@H](CC(C)C)C(=O)NCC(=O)N[C@@H](CCC(=O)O)C(=O)N[C@@H](CCC(=O)O)C(=O)N[C@@H](CCCNC(=N)N)C(=O)N[C@@H](CCCNC(=N)N)C(N)=O)[C@@H](C)O [Peptide N17]
MBP-16E6 [2]; [3]
  Kd: 159 ± 47 nM
MBP-16E6 [1]
  Ratio to wild-type: 15.3

## CC[C@H](C)[C@H](N)C(=O)N1CCC[C@H]1C(=O)N[C@@H](CCC(=O)O)C(=O)N[C@@H](CO)C(=O)N[C@@H](CO)C(=O)N[C@@H](CCC(=O)O)C(=O)N[C@@H](CC(C)C)C(=O)N[C@H](C(=O)N[C@@H](CC(C)C)C(=O)N[C@@H](CCC(N)=O)C(=O)N[C@@H](CCC(=O)O)C(=O)N[C@@H](CC(C)C)C(=O)N[C@@H](CC(C)C)C(=O)NCC(=O)N[C@@H](CCC(=O)O)C(=O)N[C@@H](CCC(=O)O)C(=O)N[C@@H](CCCNC(=N)N)C(=O)N[C@@H](CCCNC(=N)N)C(N)=O)[C@@H](C)O [Peptide 1]
MBP-16E6 [2]; [4]
  Kd: 2450 ± 513 nM
MBP-16E6 [2]; competition KD, BLI competition with 1-biotin, 30 nM MBP-16E6
  Kd: 2300 nM and 2400 nM

## CC[C@H](C)[C@H](NC(=O)CC1c2ccccc2-c2ccccc21)C(=O)N1CCC[C@H]1C(=O)N[C@@H](CCC(=O)O)C(=O)N[C@@H](CO)C(=O)N[C@@H](CO)C(=O)N[C@@H](CCC(=O)O)C(=O)N[C@@H](CC(C)C)C(=O)N[C@H](C(=O)N[C@@H](CC(C)C)C(=O)N[C@@H](CCC(N)=O)C(=O)N[C@@H](CCC(=O)O)C(=O)N[C@@H](CC(C)C)C(=O)N[C@@H](CC(C)C)C(=O)NCC(=O)N[C@@H](CCC(=O)O)C(=O)N[C@@H](CCC(=O)O)C(=O)N[C@@H](CCCNC(=N)N)C(=O)N[C@@H](CCCNC(=N)N)C(=O)N[C@@H](C)C(=O)N[C@@H](C)C(=O)N[C@@H](CCCCNC(=O)c1cccc2ccccc12)C(N)=O)[C@@H](C)O [Entry 4] ({Acetyl(9-fluorenyl)}-IPESSELTLQELLGEERRAAK(1Naphthoyl)-NH2)
MBP-16E6 [2]; [4]
  Kd: 47 ± 7.4 nM

## CC[C@H](C)[C@H](NC(=O)CC1c2ccccc2-c2ccccc21)C(=O)N1CCC[C@H]1C(=O)N[C@@H](CCC(=O)O)C(=O)N[C@@H](CO)C(=O)N[C@@H](CO)C(=O)N[C@@H](CCC(=O)O)C(=O)N[C@@H](CC(C)C)C(=O)N[C@H](C(=O)N[C@@H](CC(C)C)C(=O)N[C@@H](CCC(N)=O)C(=O)N[C@@H](CCC(=O)O)C(=O)N[C@@H](CC(C)C)C(=O)N[C@@H](CC(C)C)C(=O)NCC(=O)N[C@@H](CCC(=O)O)C(=O)N[C@@H](CCC(=O)O)C(=O)N[C@@H](CCCNC(=N)N)C(=O)N[C@@H](CCCNC(=N)N)C(=O)N[C@@H](C)C(=O)N[C@@H](C)C(=O)N[C@@H](CCCCNC(=O)CC1c2ccccc2-c2ccccc21)C(N)=O)[C@@H](C)O [Entry 2] ({Acetyl(9-fluorenyl)}-IPESSELTLQELLGEERRAAK(Acetyl(9-fluorenyl))-NH2)
MBP-16E6 [2]; [4]
  Kd: 8.6 ± 3.2 nM

## CC[C@H](C)[C@H](NC(=O)CC1c2ccccc2-c2ccccc21)C(=O)N1CCC[C@H]1C(=O)N[C@@H](CCC(=O)O)C(=O)N[C@@H](CO)C(=O)N[C@@H](C)C(=O)N[C@@H](CCC(=O)O)C(=O)N[C@@H](CC(C)C)C(=O)N[C@H](C(=O)N[C@@H](C)C(=O)N[C@@H](CCC(N)=O)C(=O)N[C@@H](CCC(=O)O)C(=O)N[C@@H](C)C(=O)N[C@@H](C)C(=O)NCC(=O)N[C@@H](CCC(=O)O)C(=O)N[C@@H](CCC(=O)O)C(=O)N[C@@H](CCCNC(=N)N)C(=O)N[C@@H](CCCNC(=N)N)C(=O)N[C@@H](C)C(=O)N[C@@H](C)C(=O)N[C@@H](CCCCNC(=O)c1cccc2cc3ccccc3cc12)C(N)=O)[C@@H](C)O [6′-3L3A] ({Acetyl(9-fluorenyl)}-IPESAELTAQEAAGEERRAAK(Anthracene1carbonyl)-NH2)
MBP-16E6 [1]; TABLE 2B, BLI competition
  KD, nM: n.b.

## CC[C@H](C)[C@H](NC(=O)CC1c2ccccc2-c2ccccc21)C(=O)N1CCC[C@H]1C(=O)N[C@@H](CCC(=O)O)C(=O)N[C@@H](CO)C(=O)N[C@@H](CO)C(=O)N[C@@H](CCC(=O)O)C(=O)N[C@@H](CC(C)C)C(=O)N[C@H](C(=O)N[C@@H](CC(C)C)C(=O)N[C@@H](CCC(N)=O)C(=O)N[C@@H](CCC(=O)O)C(=O)N[C@@H](CC(C)C)C(=O)N[C@@H](CC(C)C)C(=O)NCC(=O)N[C@@H](CCC(=O)O)C(=O)N[C@@H](CCC(=O)O)C(=O)N[C@@H](CCCNC(=N)N)C(=O)N[C@@H](CCCNC(=N)N)C(=O)N[C@@H](C)C(=O)N[C@@H](C)C(=O)N[C@@H](CCCCNC(=O)c1cccc2cc3ccccc3cc12)C(N)=O)[C@@H](C)O [Entry 6] ({Acetyl(9-fluorenyl)}-IPESSELTLQELLGEERRAAK(Anthracene1carbonyl)-NH2)
MBP-16E6 [2]; [4]
  Kd: 3.7 ± 1.9 nM

## C=C(NC(=O)[C@H](CCC)NC(=O)[C@H](CC1CCC1)NC(=O)[C@H](CCC(=O)O)NC(=O)CNC(=O)[C@H](CCC)NC(=O)[C@@H]1C[C@@H](O)CN1C(=O)[C@H](CCC)NC(=O)[C@@H](N)CCCC(=O)O)C(=O)N[C@@H](CCC(=O)O)C(=O)N[C@@H](CCC(=O)O)C(=O)N[C@@H](CCCNC(=N)N)C(N)=O [peptide 3] (H-[Aad][Nva][Hyp][Nva]GE[Cba][Nva][Dha]EER-NH2)
MBP-16E6 [2]
  Ki: 466 nM

## C=C(NC(=O)[C@H](CC(C)C)NC(=O)[C@H](CC(C)C)NC(=O)[C@H](CCCC(=O)O)NC(=O)C(C)(C)NC(=O)[C@H](CC1CC1)NC(=O)[C@@H](NC(=O)[C@H](Cc1ccc2ccccc2c1)NC(=O)[C@@H](N)CCCC(=O)O)C1CCCC1)C(=O)N[C@@H](CCC(=O)O)C(=O)N[C@@H](CCC(=O)O)C(=O)N[C@@H](CCCNC(=N)N)C(N)=O [peptide 23] (H-[Aad][2Nal][Gly(cPent)][Ala(cPr)][Aib][Aad]LL[Dha]EER-NH2)
MBP-16E6 [1]
  improved affinity compared to parent reactide ELT-DHA9G: 50 fold

## C=C(NC(=O)[C@H](C)NC(=O)[C@H](C)NC(=O)[C@H](CCC(=O)O)NC(=O)[C@H](CCC(N)=O)NC(=O)[C@H](C)NC(=O)[C@@H](NC(=O)[C@H](CC(C)C)NC(=O)[C@H](CCC(=O)O)NC(=O)[C@H](C)NC(=O)[C@H](CO)NC(=O)[C@H](CCC(N)=O)NC(=O)[C@@H]1CCCN1C(=O)[C@@H](NC(=O)CC1c2ccccc2-c2ccccc21)[C@@H](C)CC)[C@@H](C)O)C(=O)N[C@@H](CCCNC(=N)N)C(=O)N[C@@H](CCCNC(=N)N)C(=O)N[C@@H](CCCCN)C(=O)N[C@@H](CCCCN)C(=O)N[C@@H](CCCCNC(=O)c1cccc2cc3ccccc3cc12)C(N)=O [Peptide 13-3L3A] ({Acetyl(9-fluorenyl)}-IPQSAELTAQEAA[Dha]RRKKK(Anthracene1carbonyl)-NH2)
MBP-16E6 [1]; TABLE 2C, BLI competition
  KD in nM: n.b.
MBP-16E6 [1]; TABLE 2E, competition with immobilized 1-Biotin following 30 min incubation with 16E6
  Apparent Ki in nM: n.b.

## CC[C@H](C)[C@H](NC(=O)C1CCc2ccccc21)C(=O)N1CCC[C@H]1C(=O)N[C@@H](CCC(=O)O)C(=O)N[C@@H](CO)C(=O)N[C@@H](CO)C(=O)N[C@@H](CCC(=O)O)C(=O)N[C@@H](CC(C)C)C(=O)N[C@H](C(=O)N[C@@H](CC(C)C)C(=O)N[C@@H](CCC(N)=O)C(=O)N[C@@H](CCC(=O)O)C(=O)N[C@@H](CC(C)C)C(=O)N[C@@H](CC(C)C)C(=O)NCC(=O)N[C@@H](CCC(=O)O)C(=O)N[C@@H](CCC(=O)O)C(=O)N[C@@H](CCCNC(=N)N)C(=O)N[C@@H](CCCNC(=N)N)C(N)=O)[C@@H](C)O (stereo partly shown) [Peptide N3]
MBP-16E6 [1]; relative to fluorene-modified N1 / parent modification
  decrease in binding by change of terminal group: ~ 42 fold

## CC[C@H](C)[C@H](NC(=O)CC1c2ccccc2-c2ccccc21)C(=O)N1CCC[C@H]1C(=O)N[C@@H](CCC(=O)O)C(=O)N[C@@H](CO)C(=O)N[C@@H](C)C(=O)N[C@@H](CCC(=O)O)C(=O)N[C@@H](CC(C)C)C(=O)N[C@H](C(=O)N[C@@H](CC(C)C)C(=O)N[C@@H](CCC(N)=O)C(=O)N[C@@H](CCC(=O)O)C(=O)N[C@@H](CC(C)C)C(=O)N[C@@H](CC(C)C)C(=O)NCC(=O)N[C@@H](CCC(=O)O)C(=O)N[C@@H](CCC(=O)O)C(=O)N[C@@H](CCCNC(=N)N)C(=O)N[C@@H](CCCNC(=N)N)C(=O)N[C@@H](C)C(=O)N[C@@H](C)C(=O)N[C@@H](CCCCNC(=O)c1cccc2cc3ccccc3cc12)C(N)=O)[C@@H](C)O [peptide 6′] ({Acetyl(9-fluorenyl)}-IPESAELTLQELLGEERRAAK(Anthracene1carbonyl)-NH2)
MBP-16E6 [2]; KD in nM, TABLE 2C, BLI competition
  Kd: 1.4 ± 0.6 nM
MBP-16E6 [2]; [4]
  Kd: 2.7 ± 1.2 nM
MBP-16E6 [2]; competition KD, BLI competition, values in text
  Kd: 2.7 nM
